Reference: patent US20060024691A1, “Novel pathways in the etiology of cancer” (Buck Institute for Age Research, priority 2004, published 2006)
Where two headings read alike, the source gives them in different places.

Tests used:
[1] = tested on: ERα Ser-118 (67 kD ERα and 52 kD ERα variant); type: cell-based, human; conditions: for Ser-118 phosphorylation of ER induced by treatment: MCF-7/T47D cells, charcoal-stripped media, 30 min, menadione 100 μM, estradiol 10 nM, other quinones at equitoxic doses
Method: (§1) Human breast cancer cell lines MCF7 and T47D were obtained from the American Type Culture Collection (ATCC). MCF7 cells were maintained in Dulbecco's Modification of Eagle's Medium (Cellgro) supplemented with 10% fetal bovine serum (Cellgro), 1% penicillin/streptomycin (Cellgro) and 10 μg/ml insulin (Sigma). T47D cells were maintained in RPMI (Cellgro) supplemented with 10% fetal bovine serum, 1% penicillin/streptomycin and 10 μg/ml insulin. Treatment conditions for both cell lines involved plating ˜1×10^6 cells in normal media onto 10 cm dishes, attachment and growth for 24 hours followed by a change to estrogen-free culture conditions (phenol red-free DME H-16 supplemented with 10% charcoal stripped serum, 1% penicillin/streptomycin and 10 μg/ml insulin) for an additional 24 hours. Cells were then treated as indicated for 30 minutes before extract preparation. Indicated conditions involved 30 minute pretreatments.
(§2) Following aspiration of the media and one ice cold PBS wash, cells growing on 10 cm dishes were harvested using a cell scraper and 0.7 ml of ice cold cell lyses buffer ([…], 1.5 mM MgCl2, […] KCl, 1 mM DTT, […] NaFl, 5% glycerol, 0.45% NP40 (Igepal, Sigma) and mincomplete protease inhibitors (Roche)). […] For preparation of high-salt nuclear extracts (nucleoplasm), isolated nuclei were resuspended for 20 minutes in ice cold extraction buffer (0.4 M NaCl, 25 mM Tris pH 7.5, 1 mM DTT, 20% glycerol, 10 mM NaFl and min-complete protease inhibitors (Roche)) followed by a 4° C. centrifugation at 16,000×g for 15 minutes.
(§3) Equal amounts of protein from the various extracts were mixed with 2× SDS sample buffer (125 mM Tris pH6.8, 20% glycerol, 2% SDS, 0.28 M 2-mercaptoethanol and0.5% Bromphenol Blue), heated for 5 minutes at 90° C. and electrophoresed on NuPAGE 4-12% Bis-Tris gels (Invitrogen) using NuPAGE MOPS SDS running buffer (Invitrogen) and full range Rainbow recombinant protein molecular weight markers (Amersham Pharmacia). […] Membranes were then blocked for 30 minutes in blocking buffer (150 mM NaCl, 20 mM Tris pH 7.5, 0.3% Tween-20 and 4% Nonfat dry milk powerby weight).

[2] = tested on: ERα Ser-167 (67 kD ERα and 52 kD ERα variant); type: cell-based, human; conditions: MCF7 nuclear extracts, 30 min
Method: as §1, §2, §3

ERK1/ERK2 = assay: MAPK activation: ERK1/ERK2 phosphorylation, Western blot; type: cell-based, human; conditions: MCF7 cells, 30 minutes
Method: as §1
(§4) For preparation of high-salt nuclear extracts (nucleoplasm), isolated nuclei were resuspended for 20 minutes in ice cold extraction buffer (0.4 M NaCl, 25 mM Tris pH 7.5, 1 mM DTT, 20% glycerol, 10 mM NaFl and min-complete protease inhibitors (Roche)) followed by a 4° C. centrifugation at 16,000×g for 15 minutes.
Membranes were then blocked for 30 minutes in blocking buffer (150 mM NaCl, 20 mM Tris pH 7.5, 0.3% Tween-20 and 4% Nonfat dry milk powerby weight).

ERα = conditions: estrogen-free culture, 30 min, K3 100 μM, estradiol 10 nM
Method: as §1, §4

[3] = tested on: p50 and p65 NFκB subunits; assay: Immunoblot of nuclear p50 and p65 NFκB subunits in MCF-7 cells; type: cell-based, human; conditions: MCF-7, menadione 100 μM × 30 min
Method: PS-341 was kindly provided by Millennium Pharmaceuticals Inc. (Cambridge, Mass.). […] For assessment of combined treatment effects on cell viability, 2×10^4 cells (MCF-7, MCF-7/HER2, BT474) grown in 24-well plates were first treated with tamoxifen (dissolved in ethanol) and/or parthenolide (dissolved in DMSO); for the combination treatment pathenolide was added 4 h before addition of tamoxifen. Cell viability was measured 18 h after tamoxifen treatment using the sulforhodamine B (SRB) assay (Skehan, et al. 1990). Briefly, cells fixed with trichloroacetic acid were stained for 30 min with 0.4% SRB dissolved in 1% acetic acid. Unbound dye was removed by four washes with 1% acetic acid, and protein-bound dye was extracted with 10 mM unbuffered Tris base [tris(hydroxymethyl)aminomethane] for determination of optical density at 564 nm.
Fractionation of control and treated cells into cytoplasmic and nuclear extracts was performed as previously described (Dignam et al., 1983), with minor modification. Cells harvested on ice were washed twice with cold PBS, scraped and resuspended in 1.0 ml hypotonic buffer (20 mM HEPES, pH 7.0; 10 mM KCl; 1 mM MgCl2; 0.1% Triton X-100; 20% glycerol; 0.5 mM DTT) containing a cocktail of protease inhibitors (Mini CompleteTM protease inhibitors, Roche Diagnostics, Mannheim, Germany). The harvested cells were Dounce homogenized on ice, the mixture centrifuged at 3,000 rpm at 4° C. (5 min), and the cytoplasmic fraction separated from the nuclear pellet which was resuspended in elution buffer (20 mM HEPES, pH 7.0; 10 mM KCl; 1 mM MgCl2; 0.42 M NaCl; 0.1% Triton X-100; 20% glycerol; 0.5 mM DTT), supplemented with protease inhibitors. After 20 min at 4° C. the buffered mixture was centrifuged at 14,000 rpm at 4° C. (10 min) to obtain solubilized nuclear extracts which were then stored in aliquots at −80° C. after protein determination (Bradford; BioRad, Hercules, Calif.) and for subsequent NFkB DNA-binding assays.
Antibodies against p50 NFκB, p65 NFκB, IκB, and β-actin proteins were commercially obtained (Santa Cruz Biotechnology, Santa Cruz, Calif.; and Abcam Inc., Cambridge, Mass.). […]; 4% SDS; 20% glycerol; and 10% 2-mercaptoethanol) and resolved by electrophoresis in 4-12% Bis-Tris SDS gradient gels in morpholinepropane sulfonic acid (MOPS) buffer. Separated proteins were transferred onto polyvinylidene difluoride membranes (Millipore Co., Billerica, Mass.), blocked with 5% non-fat milk in PBS containing 0.1% Tween-20, and membranes immunoblotted with the indicated antibodies in blocking solution. […]

CC1=CC(=O)c2ccccc2C1=O [menadione, 2-methyl-1,4-naphthoquinone]
Ser-118 phosphorylation of ER induced by treatment [1]: induced Ser-118 phosphorylation | Ser-118 phosphorylation of ER induced by treatment ([1]; listed as K3): contained both 67 kD and 52 kD p-Ser-118 ERα | ER isoform activation on longer exposure ([1]; menadione exposures 4-6 hr): further enhanced activation of the ˜52 kDa delta7 ER isoform while diminishing that of 67 kDa ER | Ser-167 phosphorylation of ERα induced by treatment [2]: Ser-167 phosphorylation only on the 52 kD ERα nuclear variant | ERK1/ERK2 phosphorylation induced by treatment (ERK1/ERK2): high level of ERK1/ERK2 phosphorylation | nuclear translocation of ERα (ERα): nuclear translocation of 67 kDa (wild-type) ER | nuclear translocation of ERα (ERα; listed as K3): majority of this cytoplasmic ERα has translocated to the nucleus | nuclear NFκB subunits p50 and p65 after menadione treatment [3]: increases in the nuclear NFκB subunits, p50 and p65
